# Entries after “also recorded” stand apart in the source; their conditions may differ.
# Tests used:
# [1] = RSSH generation and quantification of cyclic ureas by UPLC-MS with HPE-IAM or NEM trap; type: physicochemical; details: precursor 10 μM, pH 7.4 ammonium bicarbonate buffer; for yield of cyclic urea byproduct: HPE-IAM 500 μM (50 equiv.), 37° C.; for cyclic urea byproduct formation: HPE-IAM 500 μM, 37° C. (7a 15 min, 7c 7 h)
# Method: Precursor 1a was dissolved in DMSO to afford a 1 mM stock solution. Similarly, HPE-IAM and N-ethyl maleimide (NEM) were independently dissolved in DMSO to obtain 50 mM stock solutions. To a 20 mL scintillation vial, HPE-IAM or NEM (30 μL, 50 mM) was added in pH 7.4 ammonium bicarbonate buffer (2.94 mL) containing the DTPA (100 μM). The resulting solution was pre-incubated at 37° C. for 10 min. Precursor 1a (30 μL, 1 mM) was then added into the mixture and incubated for 15 min at 37° C. An aliquot of the reaction mixture (500 μL) was withdrawn, 4-hydroxyphenylacetamide (10 μM) was added as internal standard, and analyzed using UPLC-MS as follows: Mobile phase: 0-1 min 90% water+0% ACN+10% formic acid (0.1%); 1-7.5 min gradient up to 10% water+80% ACN+10% formic acid (0.1%); 7.5-8.4 min 10% water+80% ACN+10% formic acid (0.1%); 8.4-8.5 min gradient up to 90% water+0% ACN+10% formic acid (0.1%), 8.5-10 min 90% water+0% ACN+10% formic acid (0.1%). Flow rate=0.3 mL/min. […] These studies were conducted at least in triplicate and representative spectra are presented.
# Precursors 7a-d (10 μM) were independently incubated with HPE-IAM (500 μM) in pH 7.4 ammonium bicarbonate buffer (50 mM) containing DTPA (100 μM) at 37° C. The reaction mixture (500 μL) was analyzed using UPLC-MS. To quantify 2a-d generated from these precursors, a calibration curve of each individual cyclic urea with known concentrations was independently generated.
# Precursor 1a was dissolved in DMSO to afford a 1 mM stock solution. Similarly, HPE-IAM was dissolved in DMSO to obtain a 50 mM stock solution. To a 20 mL scintillation vial, HPE-IAM (30 μL, 50 mM) was added in pH 7.4 ammonium bicarbonate buffer (2.94 mL) containing the DTPA (100 μM). The resulting solution was pre-incubated at 37° C. for 10 min. Precursor 1a (30 μL, 1 mM) was then added into the mixture and incubated for 15 min at 37° C. An aliquot of the reaction mixture (500 μL) was withdrawn and analyzed using UPLC-MS as follows: Mobile phase: 0-1 min 90% water+0% ACN+10% formic acid (0.1%); 1-7.5 min gradient up to 10% water+80% ACN+10% formic acid (0.1%); 7.5-8.4 min 10% water+80% ACN+10% formic acid (0.1%); 8.4-8.5 min gradient up to 90% water+0% ACN+10% formic acid (0.1%), 8.5-10 min 90% water+0% ACN+10% formic acid (0.1%). Flow rate=0.3 mL/min. The mass signals for product of RSSH trapping with HPE-IAM were obtained via deconvolution using MassLynx 4.1 software. These studies were conducted at least in triplicate and representative spectra are presented.
# Precursors 7a-d (10 μM) were independently incubated with HPE-IAM (500 μM) in pH 7.4 ammonium bicarbonate buffer (50 mM) containing DTPA (100 μM) at 37° C. This reaction mixture was analyzed by UPLC-MS as follows: Mobile phase: 0-1 min 90% water+0% ACN+10% formic acid (0.1%); 1-7.5 min gradient up to 10% water+80% ACN+10% formic acid (0.1%); 7.5-8.4 min 10% water+80% ACN+10% formic acid (0.1%); 8.4-8.5 min gradient up to 90% water+0% ACN+10% formic acid (0.1%), 8.5-10 min 90% water+0% ACN+10% formic acid (0.1%). Flow rate=0.3 mL/min. To quantify 2a-d generated from these precursors, a calibration curve of each individual cyclic urea with known concentrations was independently generated.
# H9c2 cells = test: Cytotoxicity study with SYTOX Green nucleic acid stain; type: cell-based, rat; details: 24 h exposure, 0-150 μM
# Method: H9c2(2-1) embryonic rat heart myoblasts were obtained from the American Type Culture Collection. Cells were grown in Dulbecco's […] (DMEM), supplemented with fetal bovine serum (FBS) 10%, penicillin 100 U/mL and streptomycin 100 μg/mL. They were propagated in T75-flasks, split before reaching 70-80% confluence (usually every day or every second day), and used within 11 passages. Cells were passaged to tissue culture treated 96-well microtiter plates at the specified density in 180 μL volumes and incubated for 24 h.
# Cells were seeded at a density of 1×10^4 cells/well. […] Then, 100 μL of media containing 3 μM SYTOX™ Green nucleic acid stain (Invitrogen) was added and the cells were incubated for 2 h before fluorescence readings were obtained at 485Ex/538Em (Step 1). Finally, an additional 100 μL of media containing 3 μM SYTOX™ and 0.2% Triton X-100 was added in order to permeabilize all cells and incubated for 1 h before fluorescence values measured (Step 2). The relative % cells surviving was calculated as a 100% minus the ratio of the fluorescence value of Step 1 over Step 2 (% cells surviving=100%−(FL538 (Step 1)/FL538(Step 2)).
# Cells were seeded at a density of 1×10^4 cells/well. […] The relative % cells surviving was calculated as a 100% minus the ratio of the fluorescence value of Step 1 over Step 2 (% cells surviving=100%−(FL538 (Step 1)/FL538(Step 2)).
molecule,measurement,setting,value
"CNCCN(C)C(=O)SSC(C)(C)C(NC(C)=O)C(=O)OC (centres unmarked) [Precursor 7a, 2-(((3-acetamido-4-methoxy-2-methyl-4-oxobutan-2-yl)disulfannecarbonyl)(methyl)amino)-N-methylethan-1-aminium]",yield of cyclic urea byproduct,[1],87%
same,cyclic urea byproduct formation,[1],8.7 ± 0.4 µM
"COC(=O)C(NC(C)=O)C(C)(C)SSC(=O)N(C)CCN (centres unmarked) [Precursor 7b, 2-(((3-acetamido-4-methoxy-2-methyl-4-oxobutan-2-yl)disulfannecarbonyl)(methyl)amino)ethan-1-aminium]",cytotoxicity toward H9c2 cells,H9c2 cells,no toxicity; also recorded: not cytotoxic
3-(((3-acetamido-4-methoxy-2-methyl-4-oxobutan-2-yl)disulfannecarbonyl)(methyl)amino)-N-methylpropan-1-aminium [Precursor 7c],yield of cyclic urea byproduct,[1],88%
same,cyclic urea byproduct formation,[1],8.8 ± 0.2 µM

# Source: patent publication US11584712B2, “Alkylamine-substituted perthiocarbamates as dual precursors to hydropersulfide and carbonyl sulfide” (The Johns Hopkins University, priority 2020, dated 2023)
